From ChEMBL document CHEMBL4382214, “Antileishmanial activity of new hybrid tetrahydroquinoline and quinoline derivatives with phosphorus substituents” (Eur J Med Chem, 2019)
The source made the active and inactive calls. The rule behind the calls is not given here.

Key:
[1] = system: Leishmania infantum; test: Leishmanicidal activity against promastigote stage of iRFP expressing Leishmania infantum BCN150 assessed as decrease in parasite viability after 72 hrs by fluorescence assay; type: functional, organism-based; settings: BCN150, 72 h
[2] = system: Leishmania donovani; test: Inhibition of Leishmania donovani Top1B expressed in Top1B deficient Saccharomyces cerevisiae EKY3 assessed as decrease in relaxation of supercoiled pSK DNA preincubated for 15 mins followed by DNA addition and measured after 2 to 16 mins by agarose gel electrophoresis
[3] = system: Leishmania infantum; test: Leishmanicidal activity against amastigote stage of iRFP expressing Leishmania infantum BCN150 infected in BALB/c mouse splenocytes assessed as decrease in parasite viability by fluorescence assay; type: functional, organism-based
[4] = Cytotoxicity against BALB/c mouse splenocytes assessed as reduction in cell viability by alamar blue assay; type: cell-based, Splenocyte
[5] = Inhibition of Leishmania donovani Top1B expressed in Top1B deficient Saccharomyces cerevisiae EKY3 assessed as decrease in relaxation of supercoiled pSK DNA preincubated for 15 mins followed by DNA addition and measured after 5 mins by agarose gel electrophoresis
[6] = target: T1, DNA topoisomerase 1 (Homo sapiens, UniProt P11387); test: Inhibition of human Top1B expressed in Top1B deficient Saccharomyces cerevisiae EKY3 assessed as decrease in relaxation of supercoiled pSK DNA preincubated for 15 mins followed by DNA addition and measured after 5 mins by agarose gel electrophoresis
T1 sequence (P11387 whole entry): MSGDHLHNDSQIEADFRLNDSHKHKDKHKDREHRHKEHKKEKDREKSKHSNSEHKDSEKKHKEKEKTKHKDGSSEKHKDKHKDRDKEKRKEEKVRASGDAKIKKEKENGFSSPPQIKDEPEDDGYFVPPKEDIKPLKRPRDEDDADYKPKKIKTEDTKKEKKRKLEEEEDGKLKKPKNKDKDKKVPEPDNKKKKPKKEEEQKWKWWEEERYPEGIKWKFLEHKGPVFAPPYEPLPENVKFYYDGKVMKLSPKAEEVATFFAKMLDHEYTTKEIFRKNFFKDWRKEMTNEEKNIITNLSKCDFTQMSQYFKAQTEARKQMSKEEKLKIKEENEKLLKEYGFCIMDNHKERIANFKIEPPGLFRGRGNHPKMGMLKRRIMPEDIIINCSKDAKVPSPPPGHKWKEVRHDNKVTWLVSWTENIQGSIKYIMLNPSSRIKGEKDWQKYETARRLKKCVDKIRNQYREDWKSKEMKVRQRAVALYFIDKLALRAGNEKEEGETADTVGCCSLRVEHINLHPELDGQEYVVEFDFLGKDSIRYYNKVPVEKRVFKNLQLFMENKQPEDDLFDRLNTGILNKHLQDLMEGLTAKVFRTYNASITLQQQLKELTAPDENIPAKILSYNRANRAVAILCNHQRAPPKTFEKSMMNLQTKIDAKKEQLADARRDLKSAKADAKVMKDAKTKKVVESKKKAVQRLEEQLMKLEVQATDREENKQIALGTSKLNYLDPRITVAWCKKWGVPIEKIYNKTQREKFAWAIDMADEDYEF

[7] = Selectivity index, ratio of CC50 for BALB/c mouse splenocytes to EC50 for amastigote stage of iRFP expressing Leishmania infantum BCN150 infected in BALB/c mouse splenocytes; type: toxicity, cell-based; settings: read-out: Ratio CC50/EC50
[8] = system: Leishmania donovani; test: Inhibition of Leishmania donovani Top1B expressed in Top1B deficient Saccharomyces cerevisiae EKY3 assessed as decrease in relaxation of supercoiled pSK DNA preincubated for 15 mins followed by DNA addition and measured after 2 to 8 mins by agarose gel electrophoresis
[9] = system: Leishmania donovani; test: Inhibition of Leishmania donovani Top1B expressed in Top1B deficient Saccharomyces cerevisiae EKY3 assessed as decrease in relaxation of supercoiled pSK DNA preincubated for 15 mins followed by DNA addition and measured after 16 mins by agarose gel electrophoresis
[10] = target: T2, DNA topoisomerase 1 (Homo sapiens) (UniProt P11387); test: Inhibition of human Top1B expressed in Top1B deficient Saccharomyces cerevisiae EKY3 assessed as decrease in relaxation of supercoiled pSK DNA preincubated for 15 mins followed by DNA addition and measured after 2 to 8 mins by agarose gel electrophoresis
T2 sequence (whole entry): T1 sequence (P11387 whole entry)

[11] = target: T2, DNA topoisomerase 1 (Homo sapiens); test: Inhibition of human Top1B expressed in Top1B deficient Saccharomyces cerevisiae EKY3 assessed as decrease in relaxation of supercoiled pSK DNA preincubated for 15 mins followed by DNA addition and measured after 16 mins by agarose gel electrophoresis
[12] = system: Leishmania donovani; test: Inhibition of Leishmania donovani Top1B expressed in Top1B deficient Saccharomyces cerevisiae EKY3 assessed as decrease in relaxation of supercoiled pSK DNA preincubated for 15 mins followed by DNA addition and measured after 2 to 4 mins by agarose gel electrophoresis
[13] = system: Leishmania donovani; test: Inhibition of Leishmania donovani Top1B expressed in Top1B deficient Saccharomyces cerevisiae EKY3 assessed as decrease in relaxation of supercoiled pSK DNA preincubated for 15 mins followed by DNA addition and measured after 8 to 16 mins by agarose gel electrophoresis
[14] = target: T2, DNA topoisomerase 1 (Homo sapiens); test: Inhibition of human Top1B expressed in Top1B deficient Saccharomyces cerevisiae EKY3 assessed as decrease in relaxation of supercoiled pSK DNA preincubated for 15 mins followed by DNA addition and measured after 2 to 4 mins by agarose gel electrophoresis
[15] = target: T2, DNA topoisomerase 1 (Homo sapiens); test: Inhibition of human Top1B expressed in Top1B deficient Saccharomyces cerevisiae EKY3 assessed as decrease in relaxation of supercoiled pSK DNA preincubated for 15 mins followed by DNA addition and measured after 8 to 16 mins by agarose gel electrophoresis
[16] = target: T2, DNA topoisomerase 1 (Homo sapiens); test: Inhibition of human Top1B expressed in Top1B deficient Saccharomyces cerevisiae EKY3 assessed as decrease in relaxation of supercoiled pSK DNA preincubated for 15 mins followed by DNA addition and measured after 2 to 16 mins by agarose gel electrophoresis
[17] = system: Leishmania donovani; test: Inhibition of Leishmania donovani Top1B expressed in Top1B deficient Saccharomyces cerevisiae EKY3 assessed as decrease in relaxation of supercoiled pSK DNA preincubated for 15 mins followed by DNA addition and measured after 2 mins by agarose gel electrophoresis
[18] = system: Leishmania donovani; test: Inhibition of Leishmania donovani Top1B expressed in Top1B deficient Saccharomyces cerevisiae EKY3 assessed as decrease in relaxation of supercoiled pSK DNA preincubated for 15 mins followed by DNA addition and measured after 4 to 16 mins by agarose gel electrophoresis

| Structure (SMILES) | EC50 [1] | inhibition [2] | EC50 [3] | CC50 [4] | IC50 [5] | IC50 [6] | selectivity ratio [7] | inhibition [8] | inhibition [9] | IC50 ([5]; read-out: IC50) | inhibition [10] | inhibition [11] | IC50 ([6]; read-out: IC50) | inhibition [12] | inhibition [13] | inhibition [14] | inhibition [15] | inhibition [16] | inhibition [17] | inhibition [18] |
| --- | --- | --- | --- | --- | --- | --- | --- | --- | --- | --- | --- | --- | --- | --- | --- | --- | --- | --- | --- | --- |
| Fc1ccc(-c2cc(-c3ccc(F)cc3)c3cccc(P(=S)(c4ccccc4)c4ccccc4)c3n2)cc1 | 11 µM | inactive | > 10 µM | 92.1 µM | Not Active | Not Active |  |  |  |  |  |  |  |  |  |  |  |  |  |  |
| O=P(c1ccccc1)(c1ccccc1)c1cccc2c(-c3ccc(F)cc3)cc(-c3ccc(F)c(F)c3)nc12 | 2.33 µM |  | 2.15 µM | 23.9 µM |  |  | 11.1 | Active | inactive | 48.1 µM | Active | inactive | 69.6 µM |  |  |  |  |  |  |  |
| Fc1ccc(-c2cc(-c3ccc(C(F)(F)F)cc3)nc3c(P(=S)(c4ccccc4)c4ccccc4)cccc23)cc1 | 8.83 µM |  | > 10 µM | 89.7 µM |  |  |  |  |  | 34.3 µM |  |  | 27.4 µM | Active | inactive | Active | inactive |  |  |  |
| O=P(c1ccccc1)(c1ccccc1)c1cccc2c(-c3ccc(F)cc3)cc(-c3ccccc3)nc12 | 6.01 µM | inactive | 1.39 µM | 71 µM | Not Active | Not Active | 51.1 |  |  |  |  |  |  |  |  |  |  |  |  |  |
| O=P(c1ccccc1)(c1ccccc1)c1cccc2c(-c3ccccc3)cc(-c3ccc4ccccc4c3)nc12 | 4.91 µM | inactive | 4.14 µM | 57.1 µM | Not Active | Not Active | 13.8 |  |  |  |  |  |  |  |  |  |  |  |  |  |
| Cc1ccc([C@H]2C[C@@H](c3ccc(F)cc3)Nc3c2cccc3P(c2ccccc2)c2ccccc2)cc1 (relative stereo) | 20.9 µM | Active | 1.79 µM | 47 µM |  |  | 26.2 |  |  | 47.9 µM |  |  | 44.8 µM |  |  |  |  | Active |  |  |
| COc1ccc([C@@H]2C[C@H](c3ccc(C)cc3)c3cccc(P(c4ccccc4)c4ccccc4)c3N2)cc1 (relative stereo) | 27.7 µM | Active | 5.96 µM | > 50 µM |  |  | > 8.4 |  |  | 23.6 µM |  |  | 84.6 µM |  |  |  |  | Active |  |  |
| COc1ccccc1[C@@H]1C[C@H](c2ccccc2)c2cccc(P(=O)(c3ccccc3)c3ccccc3)c2N1 (relative stereo) | 9.39 µM | inactive | 0.98 µM | 34.2 µM | Not Active | Not Active | 34.9 |  |  |  |  |  |  |  |  |  |  |  |  |  |
| COc1ccc([C@@H]2C[C@H](c3ccccc3)c3cccc(P(=S)(c4ccccc4)c4ccccc4)c3N2)cc1 (relative stereo) | 10.7 µM |  | 0.61 µM | 34.7 µM |  | Not Active | 56.9 |  |  | 93.7 µM |  |  |  | Active | inactive |  |  |  |  |  |
| O=[N+]([O-])c1ccc([C@@H]2C[C@H](c3ccccc3)c3cccc(P(=S)(c4ccccc4)c4ccccc4)c3N2)cc1 (relative stereo) | 36.4 µM | inactive | 2.73 µM | 57 µM | Not Active | Not Active | 20.9 |  |  |  |  |  |  |  |  |  |  |  |  |  |
| O=P(c1ccccc1)(c1ccccc1)c1cccc2c1N[C@H](c1ccc(F)c(F)c1)C[C@@H]2c1ccc(F)cc1 (relative stereo) | 6.15 µM | inactive | 1.46 µM | 63.7 µM | Not Active | Not Active | 43.6 |  |  |  |  |  |  |  |  |  |  |  |  |  |
| Cc1ccc([C@H]2C[C@@H](c3ccc(F)cc3)Nc3c2cccc3P(=O)(c2ccccc2)c2ccccc2)cc1 (relative stereo) | 7.1 µM | inactive | 1.85 µM | 13.8 µM | Not Active | Not Active | 7.47 |  |  |  |  |  |  |  |  |  |  |  |  |  |
| Fc1ccc([C@H]2C[C@@H](c3ccccc3)Nc3c2cccc3P(c2ccccc2)c2ccccc2)cc1 (relative stereo) | 3.14 µM | Active | 1.75 µM | 90.6 µM |  |  | 51.8 |  |  | 54.2 µM |  |  | 42.2 µM |  |  |  |  | Active |  |  |
| C[C@@H]1[C@H](O)[C@@H](C)/C=C/C=C/C=C/C=C/C=C/C=C/C=C/[C@H](O[C@@H]2O[C@H](C)[C@@H](O)[C@H](N)[C@@H]2O)C[C@@H]2O[C@](O)(C[C@@H](O)C[C@@H](O)[C@H](O)CC[C@@H](O)C[C@@H](O)CC(=O)O[C@H]1C)C[C@H](O)[C@H]2C(=O)O [AMPHOTERICIN B] | 0.77 µM |  | 0.32 µM | > 20 µM |  |  | 62.5 |  |  |  |  |  |  |  |  |  |  |  |  |  |
| CC[C@@]1(O)C(=O)OCc2c1cc1n(c2=O)Cc2cc3ccccc3nc2-1 [CAMPTOTHECIN] |  |  |  |  | Not Active | Not Active |  |  |  |  |  |  |  |  |  |  |  |  | Active | inactive |
